Reference: patent US8937084B2, “Nitrogen containing morphinan derivatives and the use thereof” (Purdue Pharma L.P., priority 2012, dated 2015)

Tests used:
κ opioid receptor [1] = molecular target: T1, κ opioid receptor (Homo sapiens (Human), UniProt P41145); assay: κ-opioid receptor [35S]GTPγS functional assay, HEK-293 or CHO cells; format: biochemical; settings: for EC50: GTPγS; for Emax: relative to U69,593
Procedure: (§1) κ-Opioid Receptor Functional Assay Procedures: Functional [^35S]GTPγS binding assays were conducted as follows. κ opioid receptor membrane solution was prepared by sequentially adding final concentrations of 0.026 μg/μl κ membrane protein (in-house), 10 μg/mL saponin, 3 μM GDP and 0.20 nM [^35S]GTPγS to binding buffer (100 mM NaCl, 10 mM MgCl2, 20 mM HEPES, pH 7.4) on ice. The prepared membrane solution (190 μl/well) was transferred to 96-shallow well polypropylene plates containing 10 μl of 20× concentrated stock solutions of agonist prepared in DMSO. Plates were incubated for 30 min at a temperature of about 25° C. with shaking. Reactions were terminated by rapid filtration onto 96-well Unifilter GF/B filter plates (Perkin Elmer, Shelton, Conn.) using a 96-well tissue harvester (Packard) and followed by three filtration washes with 200 μl ice-cold binding buffer (10 mM NaH2PO4, 10 mM Na2HPO4, pH 7.4). Filter plates were subsequently dried at 50° C. for 2-3 hours. Fifty μl/well scintillation cocktail (Perkin Elmer, Shelton, Conn.) was added and plates were counted in a Packard Top-Count for 1 min/well.
(§2) κ-Oploid Receptor Functional Data: κ GTP EC50 is the concentration of a compound providing 50% of the maximal response for the compound at a K receptor.
(§3) κ GTP Emax (%) is the maximal effect elicited by a compound relative to the effect elicited by U69,593.
(§4) In TABLE 2, activity response of certain Compounds of the Invention to the μ-, δ- and κ-opioid receptors was determined as described above for functional assays using HEK-293 or CHO cells.

[2] = molecular target: recombinant human kappa opioid receptor (κ) (Homo sapiens (Human), UniProt P41145); assay: κ-opioid receptor radioligand dose-displacement binding assay ([3H]-U69,593)
Procedure: κ-Opioid Receptor Binding Assay Procedures: Membranes from HEK-293 cells, CHO or U-2 OS cells expressing the recombinant human kappa opioid receptor (κ) (cloned in house) were prepared by lysing cells in ice cold hypotonic buffer (2.5 mM MgCl2, 50 mM HEPES, pH 7.4) (10 mL/10 cm dish) followed by homogenization with a tissue grinder/Teflon pestle. Membranes were collected by centrifugation at 30,000×g for 15 min at 4° C. and pellets were resuspended in hypotonic buffer to a final concentration of 1-3 mg/mL. Protein concentrations were determined using the BioRad protein assay reagent with bovine serum albumen as standard. Aliquots of κ receptor membranes were stored at −80° C.
Radioligand dose displacement assays used 0.4 nM [^3H]-U69,593 (GE Healthcare, Piscataway, N.J.; 40 Ci/mmole) with 15 μg membrane protein (recombinant κ opioid receptor expressed in HEK 293 cells; in-house prep) in a final volume of 200 μl binding buffer (5% DMSO, 50 mM Trizma base, pH 7.4). Non-specific binding was determined in the presence of 10 μM unlabeled naloxone or U69,593. All reactions were performed in 96-well polypropylene plates for 1 hour at a temperature of about 25° C. Binding reactions were terminated by rapid filtration onto 96-well Unifilter GF/C filter plates (Perkin Elmer, Shelton, Conn.) presoaked in 0.5% polyethylenimine (Sigma). Harvesting was performed using a 96-well tissue harvester (Perkin Elmer, Shelton, Conn.) followed by five filtration washes with 200 μl ice-cold binding buffer. Filter plates were subsequently dried at 50° C. for 1-2 hours. Fifty μl/well scintillation cocktail (Perkin Elmer, Shelton, Conn.) was added and plates were counted in a Packard Top-Count for 1 min/well.
(§5) In TABLE 1, binding affinity of certain Compounds of the Invention to the μ-, δ- and κ-opioid receptors was determined as described above.

μ-opioid receptor [3] = molecular target: T2, μ-opioid receptor (Homo sapiens (Human), UniProt P35372); assay: μ-opioid receptor [35S]GTPγS functional assay, HEK-293 or CHO cells; format: biochemical; settings: for EC50: GTPγS; for Emax: relative to DAMGO
Procedure: (§6) μ-Opioid Receptor Functional Assay Procedures: [^35S]GTPγS functional assays were conducted using freshly thawed μ-receptor membranes prepared in-house from a cell line expressing recombinant μ opioid receptor in a HEK-293, CHO or U-2 OS cell background, or purchased from a commercial source (Perkin Elmer, Shelton, Conn.; or DiscovRx, Fremont, Calif.). Assay reactions were prepared by sequentially adding the following reagents to binding buffer (100 mM NaCl, 10 mM MgCl2, 20 mM HEPES, pH 7.4) on ice (final concentrations indicated): membrane protein (0.026 mg/mL), saponin ([…]), GDP ([…]) and [^35S]GTPγS (0.20 nM; Perkin Elmer, Shelton, Conn.). The prepared membrane solution (190 μl/well) was transferred to 96-shallow well polypropylene plates containing 10 μl of 20× concentrated stock solutions of the agonist [D-Ala^2, N-methyl-Phe^4 Gly-ol^5]-enkephalin (DAMGO) prepared in dimethyl sulfoxide (DMSO). Plates were incubated for 30 min at about 25° C. with shaking. Reactions were terminated by rapid filtration onto 96-well Unifilter GF/B filter plates (Perkin Elmer, Shelton, Conn.) using a 96-well tissue harvester (Perkin Elmer, Shelton, Conn.) followed by three filtration washes with 200 μl of ice-cold wash buffer (10 mM NaH2PO4, 10 mM Na2HPO4, pH 7.4). Filter plates were subsequently dried at 50° C. for 2-3 hours. BetaScint scintillation cocktail (Perkin Elmer, Shelton, Conn.) was added (50 μl/well) and plates were counted using a Packard Top-Count for 1 min/well. Data were analyzed using the sigmoidal dose-response curve fitting functions in GraphPad PRISM v. 3.0, or an in-house function for non-linear, sigmoidal dose-response curve-fitting.
(§7) μ-Opioid Receptor Functional Data: μ GTP EC50 is the concentration of a compound providing 50% of the maximal response for the compound at a μ-opioid receptor.
(§8) μ GTP Emax (%) is the maximal effect elicited by a compound relative to the effect elicited by DAMGO, a standard μ agonist. Generally, the μ GTP Emax (%) value measures the efficacy of a compound to treat or prevent pain or other Conditions.
as §4

κ opioid receptor [4] = molecular target: T1, κ opioid receptor; assay: κ-opioid receptor [35S]GTPγS functional assay, U-2 OS cells; format: biochemical; settings: for EC50: GTPγS; for Emax: relative to U69,593
Procedure: as §1, §2, §3
(§9) The following TABLE 3 provides results on the activity response of certain Compounds of the Invention at the μ- and κ-opioid receptors determined as described above using U-2 OS cells.

μ-opioid receptor [5] = molecular target: T2, μ-opioid receptor; assay: μ-opioid receptor [35S]GTPγS functional assay, U-2 OS cells; format: biochemical; settings: for EC50: GTPγS; for Emax: relative to DAMGO
Procedure: as §6, §7, §8, §9

μ-opioid receptor [6] = molecular target: T2, μ-opioid receptor; assay: μ-opioid receptor radioligand dose-displacement binding assay ([3H]-diprenorphine)
Procedure: μ-Opioid Receptor Binding Assay Procedures: Radioligand dose-displacement binding assays for μ-opioid receptors used 0.3 nM [^3H]-diprenorphine (Perkin Elmer, Shelton, Conn.), with […] membrane protein/well in a final volume of 500 μl binding buffer (10 mM MgCl2, 1 mM EDTA, 5% DMSO, 50 mM HEPES, pH 7.4). Reactions were carried out in the absence or presence of increasing concentrations of unlabeled naloxone. All reactions were conducted in 96-deep well polypropylene plates for 2 hours at room temperature. Binding reactions were terminated by rapid filtration onto 96-well Unifilter GF/C filter plates (Perkin Elmer, Shelton, Conn.), presoaked in 0.5% polyethylenimine using a 96-well tissue harvester (Perkin Elmer, Shelton, Conn.) followed by performing three filtration washes with 500 μl of ice-cold binding buffer. Filter plates were subsequently dried at 50° C. for 2-3 hours. BetaScint scintillation cocktail (Perkin Elmer, Shelton, Conn.) was added (50 μl/well), and plates were counted using a Packard Top-Count for 1 min/well. The data were analyzed using the one-site competition curve fitting functions in GraphPad PRISM™ v. 3.0 or higher (San Diego, Calif.), or an in-house function for one-site competition curve-fitting.
as §5

| SMILES | EC50 (κ opioid receptor [1]) | Emax (κ opioid receptor [1]) | Ki [2] | EC50 (μ-opioid receptor [3]) | Emax (μ-opioid receptor [3]) | EC50 (κ opioid receptor [4]) | Emax (κ opioid receptor [4]) | EC50 (μ-opioid receptor [5]) | Emax (μ-opioid receptor [5]) | Ki (μ-opioid receptor [6]) |
| --- | --- | --- | --- | --- | --- | --- | --- | --- | --- | --- |
| COc1ccc(CN2CC[C@]34CCN(CC5CC5)[C@H](Cc5ccc(OC)cc53)[C@@H]4C2)cc1 [Compound 9, (4aS,5R,10bR)-13-(cyclopropylmethyl)-9-methoxy-3-(4-methoxybenzyl)-2,3,4,4a,5,6-hexahydro-1H-5,10b-(epiminoethano)benzo[f]isoquinoline] | 1990 ± 339 nM | 46.7% | 204 ± 48.6 nM | 732 ± 70.1 nM | 89% |  |  |  |  |  |
| COc1ccc2c(c1)[C@]13CCN(CC4CC4)[C@H](C2)[C@@H]1CNC(=O)C3 [Compound 3, (4aS,5R,10bS)-13-(cyclopropylmethyl)-9-methoxy-4,4-a,5,6-tetrahydro-1H-5,10b-(epiminoethano)benzo[f]isoquinolin-2(3H)-one] | 435 ± 74 nM | 84% | 5.84 ± 0.59 nM | 856 ± 48.7 nM | 62.7% |  |  |  |  |  |
| COc1ccc(CN2C=C3[C@H]4Cc5ccc(OC)cc5[C@@]3(CCN4CC3CC3)CC2=O)cc1 [Compound 2, (5R,10bR)-13-(cyclopropylmethyl)-9-methoxy-3-(4-methoxybenzyl)-5,6-dihydro-1H-5,10b-(epiminoethano)benzo[f]isoquinolin-2(3H)-one] | 714 ± 256 nM | 68.8% |  | 268 ± 44 nM | 95.3% |  |  |  |  |  |
| O=C(O)CN1CC[C@]23CCN(CC4CC4)[C@H](Cc4ccc(O)cc42)[C@@H]3C1 [Compound 15, 2-((4aS,5R,10bR)-13-(cyclopropylmethyl)-9-hydroxy-4,4-a,5,6-tetrahydro-1H-5,10b-(epiminoethano)benzo[f]isoquinolin-3(2H)-yl)acetic acid] | 55 ± 18.9 nM | 73.3% | 2.52 ± 0.97 nM | 28.6 ± 9.31 nM | 53.3% | 5.44 ± 0.39 nM | 108 ± 4.7% | 20.8 ± 0.89 nM | 27 ± 3% |  |
| C[C@H](N)C(=O)N1CC[C@]23CCN(CC4CC4)[C@H](Cc4ccc(O)cc42)[C@@H]3C1 [Compound 14, (S)-2-amino-1-((4aS,5R,10bS)-13-(cyclopropylmethyl)-9-hydroxy-4,4-a,5,6-tetrahydro-1H-5,10b-(epiminoethano)benzo[f]isoquinolin-3(2H)-yl)propan-1-one] | 1.98 ± 0.51 nM | 86% | 0.09 ± 0.02 nM | 4.62 ± 1.55 nM | 82.7% | 0.16 ± 0.025 nM | 104 ± 3.61% | 9.82 ± 1.96 nM | 35.3 ± 4.18% |  |
| O=C1C[C@]23CCN(CC4CC4)[C@H](Cc4ccc(O)cc42)C3=CN1Cc1ccc(O)cc1 [Compound 6, (5R,10bR)-13-(cyclopropylmethyl)-9-hydroxy-3-(4-hydroxybenzyl)-5,6-dihydro-1H-5,10b-(epiminoethano)benzo[f]isoquinolin-2(3H)-one] | 30.6 ± 6.75 nM | 41.7% | 1.27 ± 0.19 nM | 57.5 ± 15.5 nM | 28% |  |  |  |  | 22.8 ± 8.32 nM |
| COc1ccc2c(c1)[C@@]13CCNC[C@H]1[C@@H](C2)N(CC1CC1)CC3 [Compound 10, (4aS,5R,10bR)-13-(cyclopropylmethyl)-9-methoxy-2,3,4,4a,5,6-hexahydro-1H-5,10b-(epiminoethano)benzo[f]isoquinoline] | 2180 ± 562 nM | 71.3% | 37 ± 7.96 nM | 2180 ± 394 nM | 66.7% |  |  |  |  |  |
| NC(=O)CN1CC[C@]23CCN(CC4CC4)[C@H](Cc4ccc(O)cc42)[C@@H]3C1 [Compound 11, 2-((4aS,5R,10bR)-13-(cyclopropylmethyl)-9-hydroxy-4,4-a,5,6-tetrahydro-1H-5,10b-(epiminoethano)benzo[f]isoquinolin-3(2H)-yl)acetamide] | 5.25 ± 1.09 nM | 63% | 0.26 nM | 2.44 ± 0.76 nM | 87.2% | 0.92 ± 0.15 nM | 102 ± 2.33% | 2.41 ± 0.36 nM | 39.3 ± 3.28% |  |
| Oc1ccc(CN2CC[C@]34CCN(CC5CC5)[C@H](Cc5ccc(O)cc53)[C@@H]4C2)cc1 [Compound 12, (4aS,5R,10bR)-13-(cyclopropylmethyl)-3-(4-hydroxybenzyl)-2,3,4,4a,5,6-hexahydro-1H-5,10b-(epiminoethano)benzo[f]isoquinolin-9-ol] | 20.8 ± 2.53 nM | 54.3% | 0.98 ± 0.25 nM | 6.87 ± 0.84 nM | 58% | 6.51 ± 1.03 nM | 110 ± 2.73% | 7.11 ± 2.99 nM | 47 ± 8.14% |  |
